Key:
Caki2 = assay: Proliferation dose-response IC50, Caki2; format: cell-based; settings: Homo sapiens, CAKI-2; proliferative IC50, linear regression modeling of dose-response
Description: (§1) Error bars indicate standard deviation for n=2 replicates. […] To evaluate inhibition of SCD1 by these molecules, we used LC/MS to quantify changes in SCD1-catalyzed conversion of stearoyl-CoA to oleoyl-CoA in response to drug treatments in vitro using SCD1 protein extracted from murine liver (Figure 3c, Supplementary Figure 2g). […] Synthesis routes and spectral data including NMR and MS are also provided (Supplementary Figures 3-6).
(§2) Cells were seeded at 5,000 cells/well in clear-bottom 96-well plates in triplicate. Drug treatment was applied at 1:1000 in reduced serum conditions (3%). […] Alternatively, cells were plated 2x10^5/well in 12-well plates (Genesee Scientific) in triplicate prior to drug treatment. After 120-hour treatment, cell number was established using a Coulter Particle Counter (Beckman). Oleic acid-albumin (Sigma Aldrich) was added to media at 5µM, and was applied adjuvant to drug treatment. Drug stocks were prepared in DMSO (Sigma) at 1000x. IC50 dosing per cell line was calculated using CalcuSyn analytical software.

RCC cell lines = assay: Proliferation assay with exogenous oleic acid (OA) rescue; format: cell-based, Human; settings: cells treated with proliferative IC50 dose, 72 hour, OA 5µg/mL
Description: Induction of the unfolded protein response (UPR) is a known biological response to SCD1 inhibition in tumor cells. […] The addition of exogenous OA was sufficient to reverse the activation of ATF6 (Figure 4b). Moreover, exogenous OA inhibited SSI-(1-4) mediated upregulation of the UPR markers BiP (heat shock 70 kDa protein) and CHOP (damage inducible transcript 3) protein levels in both A498 and ACHN cells (Figure 4c). Collectively these findings confirm that SSI-(1-4) reliably recapitulates the biological responses observed in tumor cells treated with known SCD1 inhibitors. […] Thus, SSI-4 is not predicted to have any major off-target effects through kinase inhibition (Supplementary Figures 7 and 8).
Results are presented as relative bioluminescence (BLI). […] Beta-actin is used as a loading control. (d) Proliferative response in patient-derived normal cells, and established tumor cell lines to treatment with MF-438 or SSI-(1-4).
Cells were seeded at 5,000 cells/well in clear-bottom 96-well plates in triplicate. Drug treatment was applied at 1:1000 in reduced serum conditions (3%). After 72 hours, cells were washed with PBS, and stored at -80 °C prior to analysis using CyQuant® Proliferation Analysis Kit (Invitrogen) er manufacturers’ protocol for relative fluorescence units. […] IC50 dosing per cell line was calculated using CalcuSyn analytical software.

SCD1 = settings: known inhibitor, no reference given; cited from earlier work
Caki1 = assay: Proliferation dose-response IC50, Caki1; format: cell-based; settings: Homo sapiens, CAKI-1; proliferative IC50, linear regression modeling of dose-response
Description: as §1, §2

ACHN = assay: Proliferation dose-response IC50, ACHN; format: cell-based; settings: Homo sapiens, proliferative IC50, linear regression modeling of dose-response
Description: as §1, §2

A498 = assay: Proliferation dose-response IC50, A498; format: cell-based; settings: Homo sapiens, proliferative IC50, linear regression modeling of dose-response
Description: as §1, §2

[1] = target: T1, SCD1 protein extracted from murine liver (Mus musculus, UniProt P13516); assay: In vitro SCD1 enzymatic inhibition by LC/MS (stearoyl-CoA to oleoyl-CoA, liver microsomes); format: biochemical; settings: n=2
T1 construct: Microsomes were isolated from murine liver using Microsome Isolation Kit (BioVision); from tissue; host or cells: murine liver microsomes
T1 sequence (P13516 1-355): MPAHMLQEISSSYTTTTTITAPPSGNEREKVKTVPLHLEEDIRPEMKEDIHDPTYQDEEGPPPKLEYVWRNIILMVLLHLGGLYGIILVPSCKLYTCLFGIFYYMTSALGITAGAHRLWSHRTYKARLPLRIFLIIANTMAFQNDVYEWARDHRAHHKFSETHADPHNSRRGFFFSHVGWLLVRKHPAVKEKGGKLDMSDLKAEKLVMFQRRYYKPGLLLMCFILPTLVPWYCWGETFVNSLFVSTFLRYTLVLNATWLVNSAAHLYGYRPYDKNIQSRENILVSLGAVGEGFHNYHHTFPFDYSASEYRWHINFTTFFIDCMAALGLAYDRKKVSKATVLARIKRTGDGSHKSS
Description: as §1, with “After synthesis feasibility and cost analysis, we synthesized 38 of the selected compounds.” for “Error bars indicate standard deviation for n=2 replicates.”
Microsomes were isolated from murine liver using Microsome Isolation Kit (BioVision) per the manufacturer protocol. […] To quantify biotransformation of ^13C18-stearoyl CoA to ^13C18-oleoyl CoA for drug treatments relative to vehicle controls, supernatants were evaluated using the LC/MS^2 acyl CoA quantitation method of Magnes et al. and adapting selected reaction monitoring (SRM) for isotope-labeled acyl CoAs. […] SRM signal areas for isotope-labeled acyl CoAs were measured relative to the heptadecanoyl CoA I.S. using XCalibur software (Thermo), and percent enzyme inhibition determined by comparing ^13C18-oleoyl CoA quantities between treatment and DMSO control assays. […]

| IC50 (ACHN) [µM] | IC50 [1] [nM] | Structure (SMILES) | IC50 (Caki2) [µM] | rescue of proliferation by exogenous oleic acid (OA) (RCC cell lines) | IC50 (SCD1) [nM] | IC50 (Caki1) [µM] | IC50 (A498) [µM] |
| --- | --- | --- | --- | --- | --- | --- | --- |
| 0.08 |  | CNC(=O)COc1cncc(C(=O)N2CC[C@H](Oc3ccccc3Cl)C2)c1 [ChemBL375265, reference compound] | 0.5 | fully restored proliferation | 400 | 1 | 5 |
| 0.006 | 1.1 | Cc1nnc(-c2ccc(N3CCC(Oc4ccccc4C(F)(F)F)CC3)nn2)s1 [MF-438, 2-methyl-5-(6-(4-(2-(trifluoromethyl)phenoxy)piperidin-1-yl)pyridazin-3-yl)-1,3,4-thiadiazole, reference compound] | 0.012 | fully restored proliferation |  | 0.007 | 0.008 |

— publication PMC5787466, “Accelerated bottom-up drug design platform enables the discovery of novel stearoyl-CoA desaturase 1 inhibitors for cancer therapy” (Oncotarget, 2017)
